Assay results taken from publication PMC7734235 (Computational and Structural Biotechnology Journal, 2020).

Target: T1, Rab5 (Homo sapiens, UniProt P20339)
T1 sequence (P20339 1-215): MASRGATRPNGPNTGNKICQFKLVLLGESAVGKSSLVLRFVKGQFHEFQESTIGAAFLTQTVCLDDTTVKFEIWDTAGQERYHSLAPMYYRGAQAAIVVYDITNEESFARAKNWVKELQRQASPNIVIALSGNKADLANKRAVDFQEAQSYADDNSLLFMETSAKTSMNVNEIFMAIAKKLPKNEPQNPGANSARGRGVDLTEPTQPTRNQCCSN
Experiment: intrinsic fluorescence titration
Format: binding

Kd: 350 ± 30 nM
Structure (SMILES): C=C1CC[C@@H]2[C@](C)(CO[C@@H]3O[C@H](CO)[C@@H](O)[C@H](O)[C@H]3O)CCC[C@@]2(C)[C@@H]1CCC1=CCOC1=O [NAP, Neoandrographolide]
